Assay results published in patent US11306084B2, “Integrin antagonists” (Saint Louis University, priority 2016, dated 2022).
Counter-ions that a name gives are not always drawn.

How the values were obtained:
Assay type in all cases: binding
[1] = target: T1, Recombinant human integrin ανβ8 (Homo sapiens, UniProt P06756+P26012); test: Solid Phase Receptor Assay (SPRA) for ανβ8 function; settings: plate-bound human LAP; read-out: αvβ8 SPRA IC50
T1 construct: purchased R&D Systems 4135-AV
Protocol: F. Solid Phase Receptor Assay (SPRA) for ανβ8 Function
Wells were washed 3 times with 150 μL TBS+ and then 150 μL of blocking buffer (TBS+ with 1% bovine serum albumin, Sigma A7906) was added. The plate was incubated for 1 hr at 37° C. and then washed 3× with TBS+. […] Compounds were diluted to 20 μM and 1 μL was added to each well of the plate according to a standard template with each sample repeated in triplicate. After incubation for two hours at room temperature, the plate was washed 3× with 150 μL of TBS+. To each well, 50 μL of biotinylated anti-αν antibody (R&D Systems, BAF1219) at 1 μg/mL in TBS+/0.1% BSA were added and the plate was covered and incubated for 1 hr at room temperature. After washing the plate 3× with 150 μL. of TBS+ buffer, 50 μL of streptavidin-conjugated horseradish peroxidase (R&D Systems, DY998) diluted in TBS+ blocking buffer were added to the wells and the plate incubated for 20 min at room temperature. The plate was washed 3× with TBS+ followed by 50 μL of TMB substrate (Sigma T4444) added to each well in the dark and the plate incubated for 10 min at room temperature. 25 μL of 1.0 M phosphoric acid was added as a stop solution and the plates were read at 450 nm using a Spectramax plate reader.

[2] = target: T2, Recombinant human integrin ανβ5 (Homo sapiens, UniProt P06756+P18084); test: Solid Phase Receptor Assay (SPRA) for ανβ5 function; settings: plate-bound human vitronectin; read-out: αvβ5 SPRA IC50
T2 construct: purchased R&D Systems 2528-AV
Protocol: D. Solid Phase Receptor Assay (SPRA) for ανβ5 Function
Wells were washed 3 times with 150 μL TBS+ and then 150 μL of blocking buffer (TBS+ with 1% bovine serum albumin, Sigma A7906) was added. The plate was incubated for 1 hr at 37° C. and then washed 3× with TBS+ buffer. […] Compounds were diluted to 20 μM and then 1 μL was added to each well of the plate according to a standard template with each sample repeated in triplicate. After incubation for two hours at room temperature, the plate was washed 3× with 150 μL of TBS+ buffer. To each well, 50 μl of biotinylated anti-αν antibody (R&D Systems, BAF1219) at 0.5 μg/mL in TBS+/0.1% BSA at 0.5 μg/mL were added and the plate covered and incubated for 1 hr at room temperature. After washing the plate 3 with 150 μL of TBS+ buffer, 50 μL of streptavidin-conjugated horseradish peroxidase (R&D Systems, DY998) diluted in TBS+ blocking buffer were added to the wells and the plate incubated for 20 min at room temperature. The plate was washed 3× with TBS+ buffer followed by 50 μL of TMB substrate (Sigma T4444) added to each well in the dark and the plate incubated for 5 min at room temperature. 25 μL of 1.0 M phosphoric acid was added as a stop solution and the plates were read at 450 nm using a Spectramax plate reader.

[3] = target: T3, Recombinant human integrin ανβ1 (Homo sapiens, UniProt P05556+P06756); test: Solid Phase Receptor Assay (SPRA) for ανβ1 function; settings: plate-bound human fibronectin; read-out: αvβ1 SPRA IC50
T3 construct: purchased R&D Systems 6579-AV
Protocol: B. Solid Phase Receptor Assay (SPRA) for ανβ1 Function
Wells were washed 3 times with 150 μL TBS+ and then 150 μL of blocking buffer (TBS+ with 1% bovine serum albumin, Sigma A7906) was added. The plate was incubated for 1 hr at 37° C. and then washed 3× with TBS+ buffer. […] Compounds were diluted to 20 μM and 1 μL was added to each well of the plate according to a standard template with each sample repeated in triplicate. After incubation for two hours at room temperature, the plate was washed 3 with 150 μL of TBS+ buffer. To each well, 50 μL of biotinylated anti-αν antibody (R&D Systems, BAF1219) at 1 μg/mL in TBS+/0.1% BSA were added and the plate covered and incubated for 1 hr at room temperature. After washing the plate 3× with 150 μL of TBS+ buffer, 50 μL of streptavidin-conjugated horseradish peroxidase (R&D Systems, DY998) diluted in TBS+ blocking buffer were added to the wells and the plate incubated for 20 min at room temperature. The plate was washed 3× with TBS+ buffer followed by 50 μL of TMB substrate (Sigma, T4444) added to each well in the dark and the plate incubated for 25 min at room temperature. 25 μL of 1.0 M phosphoric acid was added as a stop solution and the plates were read at 450 nm using a Spectramax plate reader.

[4] = target: T4, Recombinant human integrin ανβ3 (Homo sapiens, UniProt P05106+P06756); test: Solid Phase Receptor Assay (SPRA) for ανβ3 function; settings: plate-bound human vitronectin; read-out: αvβ3 SPRA IC50
T4 construct: purchased R&D Systems 3050-AV
Protocol: C. Solid Phase Receptor Assay (SPRA) for ανβ3 Function
Wells were washed 3 times with 150 μL TBS+ and then 150 μL of blocking buffer (TBS+ with 1% bovine serum albumin, Sigma A7906) was added. The plate was incubated for 1 hr at 37° C. and then washed 3× with TBS+ buffer. […] Compounds were diluted to 20 μM and then 1 μL was added to each well of the plate according to a standard template with each sample repeated in triplicate. After incubation for two hours at room temperature, the plate was washed 3× with 150 μL of TBS+ buffer. To each well, 50 μL of biotinylated anti-αν antibody (R&D Systems, BAF1219) at 0.5 μg/mL in TBS+/0.1% BSA were added and the plate covered and incubated for 1 hr at room temperature. After washing the plate 3× with 150 μL of TBS+ buffer, 50 μL of streptavidin-conjugated horseradish peroxidase (R&D Systems, DY998) diluted in TBS+ blocking buffer were added to the wells and the plate incubated for 20 min at room temperature. The plate was washed 3× with TBS+ buffer followed by 50 μL of TMB substrate (Sigma, T4444) added to each well in the dark and the plate was incubated for 25 min at room temperature. 25 μL of 1.0 M phosphoric acid was added as a stop solution and the plates were read at 450 nm using a Spectramax plate reader.

[5] = target: T5, Recombinant human integrin ανβ6 (Homo sapiens, UniProt P06756+P18564); test: Solid Phase Receptor Assay (SPRA) for ανβ6 function; settings: plate-bound human LAP; read-out: αvβ6 SPRA IC50
T5 construct: purchased R&D Systems 3817-AV
Protocol: E. Solid Phase Receptor Assay (SPRA) for ανβ6 Function
Wells were washed 3 times with 150 μL TBS+, and then 150 μL of blocking buffer (TBS+ with 1% bovine serum albumin, Sigma A7906) was added. The plate was incubated for 1 hr at 37° C., and then washed 3× with TBS+ buffer. […] Compounds were diluted to 20 μM and then 1 μL was added to each well of the plate according to a standard template with each sample repeated in triplicate. After incubation for two hours at room temperature, the plate was washed 3× with 150 μL of TBS+ buffer. To each well, 50 μL of biotinylated anti-αν antibody (R&D Systems, BAF1219) at 0.5 μg/mL in TBS+/0.1% BSA were added and the plate was covered and incubated for 1 hr at room temperature. After washing the plate 3× with 150 μL of TBS+ buffer, 50 μL of streptavidin-conjugated horseradish peroxidase (R&D Systems, DY998) diluted in TBS+ blocking buffer were added to the wells and the plate incubated for 20 min at room temperature. The plate was washed 3× with TBS+ buffer followed by 50 μL of TMB substrate (Sigma T4444) added to each well in the dark and the plate incubated for 10 min at room temperature. 25 μL of 1.0 M phosphoric acid was added as a stop solution and the plates were read at 450 nm using a Spectramax plate reader.

[6] = target: T6, Recombinant human integrin α5β1 (Homo sapiens, UniProt P05556+P08648); test: Solid Phase Receptor Assay (SPRA) for α5β1 function; settings: plate-bound human fibronectin
T6 construct: purchased R&D Systems 3230-A5
Protocol: A. Solid Phase Receptor Assay (SPRA) for α5β1 Function
Wells were washed 3 times with 150 μL TBS+ and then 150 μL of blocking buffer (TBS+ with 1% bovine serum albumin, Sigma A7906) was added. The plate was incubated for 1 hr at 37° C. and then washed 3× with TBS+ buffer. […] Compounds were diluted to 20 μM and then 1 μL was added to each well of the plate according to a standard template with each sample repeated in triplicate. After incubation for two hours at room temperature, the plate was washed 3× with 150 μL of TBS+ buffer. To each well, 50 μL of biotinylated anti-α5 antibody (R&D Systems, BAF1864) at 0.5 μg/mL in TBS+/0.1% BSA were added and the plate covered and incubated for 1 hr at room temperature. After washing the plate 3× with 150 μL of TBS+ buffer, 50 μL of streptavidin-conjugated horseradish peroxidase (R&D Systems, DY998) diluted in TBS+ blocking buffer were added to the wells and the plate incubated for 20 min at room temperature. The plate was washed 3× with TBS+ buffer followed by 50 μL of room temperature TMB substrate (Sigma, T4444) added to each well in the dark and the plate incubated for 25 min at room temperature. 25 μL of 1.0 M phosphoric acid was added as a stop solution and the plates were read at 450 nm using a Spectramax plate reader.

T5 sequence (P06756 31-992 limits assumed): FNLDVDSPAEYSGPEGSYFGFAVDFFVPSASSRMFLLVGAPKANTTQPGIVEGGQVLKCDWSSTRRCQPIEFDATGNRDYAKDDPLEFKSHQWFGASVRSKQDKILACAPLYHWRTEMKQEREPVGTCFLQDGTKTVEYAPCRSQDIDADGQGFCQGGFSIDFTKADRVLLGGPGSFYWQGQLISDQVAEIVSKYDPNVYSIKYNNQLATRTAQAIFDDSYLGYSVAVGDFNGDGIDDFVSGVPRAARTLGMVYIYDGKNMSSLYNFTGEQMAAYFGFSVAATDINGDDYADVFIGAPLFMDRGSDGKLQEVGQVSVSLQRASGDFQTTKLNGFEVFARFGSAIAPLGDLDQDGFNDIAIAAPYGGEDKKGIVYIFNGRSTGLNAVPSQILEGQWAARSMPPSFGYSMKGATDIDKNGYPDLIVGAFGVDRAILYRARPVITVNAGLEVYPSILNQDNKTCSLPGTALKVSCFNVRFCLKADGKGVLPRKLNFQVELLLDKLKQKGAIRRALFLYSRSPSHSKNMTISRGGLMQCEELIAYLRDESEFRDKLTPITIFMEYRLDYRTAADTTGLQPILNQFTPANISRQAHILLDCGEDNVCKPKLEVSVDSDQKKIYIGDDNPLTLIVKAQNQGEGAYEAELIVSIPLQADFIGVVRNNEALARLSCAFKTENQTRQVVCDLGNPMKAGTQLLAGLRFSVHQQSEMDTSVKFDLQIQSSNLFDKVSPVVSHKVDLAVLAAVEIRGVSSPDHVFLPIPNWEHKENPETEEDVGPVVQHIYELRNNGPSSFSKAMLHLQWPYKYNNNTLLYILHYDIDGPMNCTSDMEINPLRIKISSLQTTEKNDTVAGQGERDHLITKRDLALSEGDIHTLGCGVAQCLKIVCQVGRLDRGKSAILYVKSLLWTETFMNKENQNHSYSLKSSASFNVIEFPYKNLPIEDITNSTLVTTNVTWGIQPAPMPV
T5 sequence (P18564 22-707 limits assumed): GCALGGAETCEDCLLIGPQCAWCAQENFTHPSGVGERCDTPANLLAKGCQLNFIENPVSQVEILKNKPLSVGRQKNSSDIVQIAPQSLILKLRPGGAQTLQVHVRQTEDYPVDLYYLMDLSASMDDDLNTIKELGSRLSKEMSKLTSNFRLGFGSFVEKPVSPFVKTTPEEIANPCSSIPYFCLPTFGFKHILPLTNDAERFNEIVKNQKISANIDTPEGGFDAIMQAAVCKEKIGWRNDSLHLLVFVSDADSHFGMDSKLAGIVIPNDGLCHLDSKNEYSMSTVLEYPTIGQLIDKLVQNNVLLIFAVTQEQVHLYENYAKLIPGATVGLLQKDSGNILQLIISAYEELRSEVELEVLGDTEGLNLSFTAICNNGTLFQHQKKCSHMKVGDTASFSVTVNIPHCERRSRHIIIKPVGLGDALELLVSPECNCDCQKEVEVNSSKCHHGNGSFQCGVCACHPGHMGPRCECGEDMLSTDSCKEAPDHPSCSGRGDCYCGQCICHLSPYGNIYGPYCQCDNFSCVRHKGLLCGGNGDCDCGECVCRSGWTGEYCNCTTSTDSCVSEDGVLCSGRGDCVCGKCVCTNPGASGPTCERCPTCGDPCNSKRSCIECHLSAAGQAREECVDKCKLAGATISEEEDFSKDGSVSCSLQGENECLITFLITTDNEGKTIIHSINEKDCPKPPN
T1 sequence (P06756 31-992 limits assumed): as the sequence (P06756 31-992 limits assumed) above
T1 sequence (P26012 43-684 limits assumed): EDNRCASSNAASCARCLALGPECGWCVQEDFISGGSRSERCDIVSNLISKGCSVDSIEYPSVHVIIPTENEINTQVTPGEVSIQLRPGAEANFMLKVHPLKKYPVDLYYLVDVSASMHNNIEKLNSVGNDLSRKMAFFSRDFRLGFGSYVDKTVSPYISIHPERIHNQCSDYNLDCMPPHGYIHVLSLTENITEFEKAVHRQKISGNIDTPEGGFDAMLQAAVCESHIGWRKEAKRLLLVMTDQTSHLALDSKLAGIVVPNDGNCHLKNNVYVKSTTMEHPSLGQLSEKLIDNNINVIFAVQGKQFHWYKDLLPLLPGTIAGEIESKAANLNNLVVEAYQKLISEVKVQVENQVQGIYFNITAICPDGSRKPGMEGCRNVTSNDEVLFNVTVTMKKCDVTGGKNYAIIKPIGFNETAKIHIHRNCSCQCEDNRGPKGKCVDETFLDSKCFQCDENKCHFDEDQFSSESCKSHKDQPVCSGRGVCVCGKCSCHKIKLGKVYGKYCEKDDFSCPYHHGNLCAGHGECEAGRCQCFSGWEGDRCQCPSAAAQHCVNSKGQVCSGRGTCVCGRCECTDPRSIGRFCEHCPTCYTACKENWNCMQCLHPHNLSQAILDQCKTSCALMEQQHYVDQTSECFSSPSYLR
T3 sequence (P06756 31-992 limits assumed): as the sequence (P06756 31-992 limits assumed) above
T3 sequence (P05556 21-728 limits assumed): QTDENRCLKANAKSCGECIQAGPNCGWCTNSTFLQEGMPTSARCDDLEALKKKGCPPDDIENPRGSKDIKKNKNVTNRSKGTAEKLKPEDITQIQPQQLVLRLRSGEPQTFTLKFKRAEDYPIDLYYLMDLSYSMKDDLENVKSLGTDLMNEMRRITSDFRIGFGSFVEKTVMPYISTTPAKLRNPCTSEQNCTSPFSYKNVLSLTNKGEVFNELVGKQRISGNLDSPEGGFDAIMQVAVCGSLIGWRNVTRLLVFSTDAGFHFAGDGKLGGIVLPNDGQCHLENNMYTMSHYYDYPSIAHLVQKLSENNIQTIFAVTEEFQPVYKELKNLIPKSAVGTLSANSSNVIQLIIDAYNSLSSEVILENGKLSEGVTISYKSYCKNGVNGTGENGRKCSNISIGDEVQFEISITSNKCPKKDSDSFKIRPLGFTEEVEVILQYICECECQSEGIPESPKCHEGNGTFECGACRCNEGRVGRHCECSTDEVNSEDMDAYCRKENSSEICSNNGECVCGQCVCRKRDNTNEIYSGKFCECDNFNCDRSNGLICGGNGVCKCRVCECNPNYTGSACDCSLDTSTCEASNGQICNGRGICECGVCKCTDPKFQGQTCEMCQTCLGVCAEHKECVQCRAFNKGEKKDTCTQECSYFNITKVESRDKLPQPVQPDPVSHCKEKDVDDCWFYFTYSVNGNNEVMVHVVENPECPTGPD
T6 sequence (P08648 42-995 limits assumed): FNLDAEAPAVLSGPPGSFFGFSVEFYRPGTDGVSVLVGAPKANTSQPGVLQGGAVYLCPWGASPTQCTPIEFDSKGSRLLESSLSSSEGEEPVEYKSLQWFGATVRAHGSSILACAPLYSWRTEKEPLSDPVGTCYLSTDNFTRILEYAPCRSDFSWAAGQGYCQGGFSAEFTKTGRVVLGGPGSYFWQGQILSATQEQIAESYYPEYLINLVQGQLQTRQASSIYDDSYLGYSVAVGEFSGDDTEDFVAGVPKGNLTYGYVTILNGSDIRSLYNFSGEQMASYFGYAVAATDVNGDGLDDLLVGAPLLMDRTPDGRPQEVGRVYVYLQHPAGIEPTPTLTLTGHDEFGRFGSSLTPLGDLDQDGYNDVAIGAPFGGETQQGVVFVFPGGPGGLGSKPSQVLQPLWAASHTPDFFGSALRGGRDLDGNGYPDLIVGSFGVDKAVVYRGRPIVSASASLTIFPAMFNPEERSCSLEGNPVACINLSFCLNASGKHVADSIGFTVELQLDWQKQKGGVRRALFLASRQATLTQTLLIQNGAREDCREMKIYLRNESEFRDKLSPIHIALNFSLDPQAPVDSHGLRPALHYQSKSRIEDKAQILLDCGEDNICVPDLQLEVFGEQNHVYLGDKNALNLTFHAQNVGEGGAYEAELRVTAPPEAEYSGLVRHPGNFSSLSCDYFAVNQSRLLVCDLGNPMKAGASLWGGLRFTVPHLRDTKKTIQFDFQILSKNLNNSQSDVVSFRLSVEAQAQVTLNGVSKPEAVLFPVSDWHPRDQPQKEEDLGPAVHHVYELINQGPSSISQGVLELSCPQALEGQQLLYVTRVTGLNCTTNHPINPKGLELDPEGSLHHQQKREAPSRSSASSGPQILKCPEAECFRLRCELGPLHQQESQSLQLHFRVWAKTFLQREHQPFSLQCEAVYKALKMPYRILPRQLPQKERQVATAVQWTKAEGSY
T6 sequence (P05556 21-728 limits assumed): as the sequence (P05556 21-728 limits assumed) above
T2 sequence (P06756 31-992 limits assumed): as the sequence (P06756 31-992 limits assumed) above
T2 sequence (P18084 24-719 limits assumed): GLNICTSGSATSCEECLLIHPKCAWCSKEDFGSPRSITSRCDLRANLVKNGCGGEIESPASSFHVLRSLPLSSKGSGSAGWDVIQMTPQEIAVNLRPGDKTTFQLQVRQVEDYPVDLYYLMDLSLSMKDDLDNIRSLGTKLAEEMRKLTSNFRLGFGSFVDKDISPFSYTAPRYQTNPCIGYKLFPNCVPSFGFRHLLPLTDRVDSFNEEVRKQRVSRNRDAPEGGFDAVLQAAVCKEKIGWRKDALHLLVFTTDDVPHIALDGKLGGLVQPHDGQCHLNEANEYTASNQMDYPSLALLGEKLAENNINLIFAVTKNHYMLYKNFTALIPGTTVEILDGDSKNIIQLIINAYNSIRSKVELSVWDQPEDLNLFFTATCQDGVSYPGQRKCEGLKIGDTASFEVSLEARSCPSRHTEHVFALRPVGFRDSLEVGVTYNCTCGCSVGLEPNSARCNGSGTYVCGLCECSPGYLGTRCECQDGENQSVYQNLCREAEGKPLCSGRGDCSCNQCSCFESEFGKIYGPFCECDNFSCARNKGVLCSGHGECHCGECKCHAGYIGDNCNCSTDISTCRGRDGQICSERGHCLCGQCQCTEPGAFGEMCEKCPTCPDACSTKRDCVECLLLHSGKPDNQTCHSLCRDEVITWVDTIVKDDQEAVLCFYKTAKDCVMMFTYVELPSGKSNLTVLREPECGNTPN

SMILES | IC50 [1] | IC50 [2] | IC50 [3] | IC50 [4] | IC50 [5] | IC50 [6]
Cn1nc(CC(CC(=O)O)c2cc(C#N)cc(C(F)(F)F)c2)cc1OCCc1ccc2c(n1)NCCC2 (stereo not drawn) [Example 12, 3-(3-cyano-5-(trifluoromethyl)phenyl)-4-(1-methyl-5-(2-(5,6,7,8-tetrahydro-1,8-naphthyridin-2-yl)ethoxy)-1H-pyrazol-3-yl)butanoic Acid] | 14 nM | 0.1 nM | 4.5 nM | 4.3 nM | 27 nM | –
CC(C)Oc1ccc(C(C)(C)C)cc1C(CC(=O)O)Cc1cc(OCCc2ccc3c(n2)NCCC3)n(C)n1 (stereo not drawn) [Example 35, 3-(5-tert-butyl-2-isopropoxy-phenyl)-4-[1-methyl-5-[2-(5,6,7,8-tetrahydro-1,8-naphthyridin-2-yl)ethoxy]pyrazol-3-yl]butanoic Acid Trifluoroacetate] | 120 nM | – | 7.6 nM | – | 1100 nM | 75 nM
